For 5 compounds, MIC results are on record in patent US9982005B2, “Macrolides and methods of their preparation and use” (President and Fellows of Harvard College, priority 2013, dated 2018).

Common to all, as to format: cell-based
One experiment has as its system K. pneumoniae strains. Briefly: MIC against K. pneumoniae strains (Table M8). The conditions noted are these: Klebsiella pneumoniae, K. pneumoniae 10031.
The next experiment deals with E. faecalis strains. Kind of experiment: MIC against E. faecalis strains (Table M8). The conditions noted are these: Enterococcus faecalis, E. faecalis 29212.
The test system of the next experiment is A. baumannii strains. Kind of experiment: MIC against A. baumannii strains (Table M8). The conditions noted are these: Acinetobacter baumannii, BAA747, A. baumannii BAA747-1.
For a further experiment, the system named is H. influenzae strains. Kind of experiment: MIC against H. influenzae strains (Table M8). The conditions noted are these: Haemophilus influenzae. An excerpt:
(§1) We have collected MIC data for a total of 50 novel macrolides that this platform has produced against over 21 unique strains of B. subtilis, E. coli, S. aureus, S. pneumoniae, and H. influenzae, including several multidrug-resistant strains, with a special focus on macrolide resistant mechanisms (vide supra). Azithromycin was included as a control macrolide. CLSI standard procedures for broth dilution MIC determination were used. […] These genotypes can be constitutive or inducible. The finding that C4-epi (unnatural) isomers of the “azaketolide” macrolide class have enhanced activities relative to C4 natural isomers is very exciting.

The subject of the next experiment is S. aureus strains. Kind of experiment: MIC against S. aureus strains (Table M7). The conditions noted are these: Staphylococcus aureus.
Description: as §1

Another experiment deals with S. pneumoniae strains. Kind of experiment: MIC against S. pneumoniae strains (Tables M7, M8). The conditions noted are these: Streptococcus pneumoniae. An excerpt: CLSI standard procedures for broth dilution MIC determination were used. […] These genotypes can be constitutive or inducible.
Another experiment relates to E. coli strains. Briefly: MIC against E. coli strains (Table M7). The conditions noted are these: Escherichia coli, ATCC25922, E. coli ATCC 25922.
Description: as §1

Setting [1] is: H. influenzae 49247, read-out: MIC H. influenzae (49247).
The mark [2] stands for this setting: H. influenzae 49766, read-out: MIC H. influenzae (49766).
The mark [3] stands for this setting: ATCC29213, S. aureus ATCC 29213, read-out: MIC S. aureus (ATCC 29213).
[4] abbreviates: S. aureus 183, read-out: MIC S. aureus (183).
The mark [5] stands for this setting: S. aureus 506, read-out: MIC S. aureus (506).
[6] abbreviates: S. aureus 1708, read-out: MIC S. aureus (1708).
Where [7] appears, read: USA300, S. aureus USA300, read-out: MIC S. aureus (USA300).
The mark [8] stands for this setting: S. pneumoniae 160, read-out: MIC S. pneumonae (160).
Where [9] appears, read: S. pneumoniae 1509, read-out: MIC S. pneumoniae (1509).
The mark [10] stands for this setting: S. pneumoniae 1533, read-out: MIC S. pneumoniae (1533).
The mark [11] stands for this setting: S. pneumoniae 1537, read-out: MIC S. pneumoniae (1537).
Where [12] appears, read: S. pneumoniae 49619, read-out: MIC S. pneumoniae (49619).

SMILES strings stand for the structures. Converted amounts (≈) assume the structure as drawn. Like-named read-outs stand apart in the source and are kept apart here. Some results are limits rather than exact numbers.

With `C=CC[C@H]1NC[C@H](C)C[C@@](C)(OC)[C@H](O[C@@H]2OC(C)CC(N(C)C)C2O)[C@@H](C)C(=O)[C@@H](C)C(=O)O[C@H](CC)[C@@]2(C)OC(=O)N(CCCCn3cc(-c4cccc(N)c4)nn3)[C@H]12` (some centres unmarked) [FSM-11044], the MIC worked out at 8 µg/mL (≈ 9.37 µM) with K. pneumoniae strains; 0.25 µg/mL (≈ 0.293 µM) in the experiment on E. faecalis strains; 32 µg/mL (≈ 37.5 µM) with A. baumannii strains; 2 µg/mL (≈ 2.34 µM) in the experiment with H. influenzae strains (setting [1]); 8 µg/mL (≈ 9.37 µM) in the experiment with H. influenzae strains (setting [2]); 1 µg/mL (≈ 1.17 µM) in the experiment with S. aureus strains (setting [3]). Besides, the MIC with S. aureus strains (setting [4]) was over 32 µg/mL; in the experiment with S. aureus strains (setting [5]), over 32 µg/mL; in the experiment on S. aureus strains (setting [6]) it was 1 µg/mL (≈ 1.17 µM); in the experiment with S. aureus strains (setting [7]) it was 1 µg/mL (≈ 1.17 µM); in the experiment with S. pneumoniae strains (setting [8]) it was 0.125 µg/mL (≈ 0.146 µM); with S. pneumoniae strains (setting [9]), 1 µg/mL (≈ 1.17 µM). For the same compound, the MIC is over 32 µg/mL with S. pneumoniae strains (setting [10]), over 32 µg/mL in the experiment with S. pneumoniae strains (setting [11]), 0.125 µg/mL (≈ 0.146 µM) with S. pneumoniae strains (setting [12]) and 32 µg/mL (≈ 37.5 µM) in the experiment on E. coli strains.
With `CC[C@H]1OC(=O)[C@H](C)C(=O)[C@H](C)[C@@H](O[C@@H]2OC(C)CC(N(C)C)C2O)[C@](C)(OC)C[C@@H](C)CN[C@H](CCN(C)C)[C@H]2N(CCCCn3cc(-c4cccc(N)c4)nn3)C(=O)O[C@]12C` (some centres unmarked) [FSM-11052], the MIC in the experiment on K. pneumoniae strains is 16 µg/mL (≈ 18.1 µM); against E. faecalis strains, 2 µg/mL (≈ 2.26 µM); in the experiment with A. baumannii strains it was over 32 µg/mL; in the experiment on H. influenzae strains (setting [1]), 8 µg/mL (≈ 9.04 µM); with H. influenzae strains (setting [2]), 32 µg/mL (≈ 36.2 µM); in the experiment on S. aureus strains (setting [3]) it was 8 µg/mL (≈ 9.04 µM). In addition, the MIC with S. aureus strains (setting [4]) is over 32 µg/mL; in the experiment with S. aureus strains (setting [5]), over 32 µg/mL; in the experiment on S. aureus strains (setting [6]), 4 µg/mL (≈ 4.52 µM); in the experiment on S. aureus strains (setting [7]) it was 32 µg/mL (≈ 36.2 µM); in the experiment on S. pneumoniae strains (setting [8]), 0.5 µg/mL (≈ 0.565 µM); with S. pneumoniae strains (setting [9]), 0.5 µg/mL (≈ 0.565 µM). Also, the MIC in the experiment on S. pneumoniae strains (setting [10]) is over 32 µg/mL; with S. pneumoniae strains (setting [11]), over 32 µg/mL; in the experiment on S. pneumoniae strains (setting [12]), 0.125 µg/mL (≈ 0.141 µM); with E. coli strains, over 32 µg/mL.
Consider `CC[C@H]1OC(=O)[C@H](C)C(=O)[C@H](C)[C@@H](O[C@@H]2OC(C)CC(N(C)C)C2O)[C@](C)(OC)C[C@@H](C)CN[C@H](CCO)[C@H]2N(CCCCn3cc(-c4cccc(N)c4)nn3)C(=O)O[C@]12C` (some centres unmarked) [FSM-11056], for which the MIC against K. pneumoniae strains is 16 µg/mL (≈ 18.6 µM); with E. faecalis strains, 2 µg/mL (≈ 2.33 µM); in the experiment on A. baumannii strains, over 32 µg/mL; in the experiment with H. influenzae strains (setting [1]), 4 µg/mL (≈ 4.66 µM); with H. influenzae strains (setting [2]), 16 µg/mL (≈ 18.6 µM); in the experiment on S. aureus strains (setting [3]), 8 µg/mL (≈ 9.32 µM). For the same compound, the MIC with S. aureus strains (setting [4]) was over 32 µg/mL; in the experiment with S. aureus strains (setting [5]), over 32 µg/mL; in the experiment with S. aureus strains (setting [6]) it was 8 µg/mL (≈ 9.32 µM); in the experiment with S. aureus strains (setting [7]) it was 32 µg/mL (≈ 37.3 µM); in the experiment with S. pneumoniae strains (setting [8]) it was 1 µg/mL (≈ 1.17 µM); with S. pneumoniae strains (setting [9]), 0.5 µg/mL (≈ 0.583 µM). The MIC in the experiment on S. pneumoniae strains (setting [10]) is over 32 µg/mL; in the experiment with S. pneumoniae strains (setting [11]), over 32 µg/mL; in the experiment with S. pneumoniae strains (setting [12]), 0.125 µg/mL (≈ 0.146 µM); against E. coli strains, over 32 µg/mL.
With `C=CC[C@@H]1[C@H]2N(CCCCn3cc(-c4cccc(N)c4)nn3)C(=O)O[C@]2(C)[C@@H](CC)OC(=O)[C@H](C)C(=O)[C@H](C)[C@@H](O[C@@H]2OC(C)CC(N(C)C)C2O)[C@](C)(OC)C[C@@H](C)CN1C` (some centres unmarked) [FSM-11094], the MIC against K. pneumoniae strains is 16 µg/mL (≈ 18.4 µM); with E. faecalis strains, 4 µg/mL (≈ 4.61 µM); in the experiment on A. baumannii strains, over 32 µg/mL; in the experiment with H. influenzae strains (setting [1]), 8 µg/mL (≈ 9.22 µM); in the experiment with H. influenzae strains (setting [2]), 16 µg/mL (≈ 18.4 µM); in the experiment on S. aureus strains (setting [3]) it was 8 µg/mL (≈ 9.22 µM). In addition, the MIC with S. aureus strains (setting [4]) is over 32 µg/mL; with S. aureus strains (setting [5]) it was over 32 µg/mL; with S. aureus strains (setting [6]) it was 16 µg/mL (≈ 18.4 µM); with S. aureus strains (setting [7]), 8 µg/mL (≈ 9.22 µM); in the experiment with S. pneumoniae strains (setting [8]) it was 1 µg/mL (≈ 1.15 µM); in the experiment with S. pneumoniae strains (setting [9]) it was over 32 µg/mL. Also, the MIC in the experiment on S. pneumoniae strains (setting [10]) is over 32 µg/mL; with S. pneumoniae strains (setting [11]), over 32 µg/mL; in the experiment with S. pneumoniae strains (setting [12]) it was 2 µg/mL (≈ 2.3 µM); in the experiment on E. coli strains, over 32 µg/mL.
Take `CC[C@H]1OC(=O)C(C)(F)C(=O)[C@H](C)[C@@H](O[C@@H]2OC(C)CC(N(C)C)C2O)[C@](C)(OC/C=C/c2cnc3ccccc3c2)C[C@@H](C)CN[C@H](C)[C@H]2NC(=O)O[C@@]21C` (some centres unmarked) [FSM-21088]: the MIC was over 32 µg/mL in the experiment on K. pneumoniae strains; 8 µg/mL (≈ 10.2 µM) in the experiment with E. faecalis strains; over 32 µg/mL in the experiment with A. baumannii strains; 8 µg/mL (≈ 10.2 µM) with H. influenzae strains (setting [1]); over 32 µg/mL in the experiment on H. influenzae strains (setting [2]); 16 µg/mL (≈ 20.4 µM) in the experiment with S. aureus strains (setting [3]). Further, the MIC in the experiment with S. aureus strains (setting [4]) was over 32 µg/mL; in the experiment on S. aureus strains (setting [5]) it was over 32 µg/mL; in the experiment with S. aureus strains (setting [6]), 8 µg/mL (≈ 10.2 µM); in the experiment on S. aureus strains (setting [7]), 16 µg/mL (≈ 20.4 µM); in the experiment with S. pneumoniae strains (setting [8]) it was 0.5 µg/mL (≈ 0.637 µM); with S. pneumoniae strains (setting [9]), over 32 µg/mL. Moreover, the MIC with S. pneumoniae strains (setting [10]) was over 32 µg/mL; in the experiment with S. pneumoniae strains (setting [11]), over 32 µg/mL; with S. pneumoniae strains (setting [12]) it was 2 µg/mL (≈ 2.55 µM); in the experiment with E. coli strains, over 32 µg/mL.
